Data published in PubChem BioAssay (NCI).
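Tested at 5 concentrations; 48 h exposure; 96-well plates; endpoints linearly interpolated, else capped at highest concentration. GI50: concentration for 50% inhibition of growth. TGI is the concentration that stops growth completely.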

How the values were obtained:
Test in all cases: NCI anticancer screen, dose series, 48 h
[1] = system: MDA-MB-231 breast
[2] = system: IGROV1 ovarian
[3] = system: HCT-116 colon
[4] = system: HS 578T breast
[5] = system: A498 renal
[6] = system: SF-295 CNS
[7] = system: RXF 393 renal
[8] = system: CCRF-CEM leukemia
[9] = system: HOP-92 NSCLC
[10] = system: MALME-3M melanoma
[11] = system: HOP-62 NSCLC
[12] = system: SF-268 CNS
[13] = system: MOLT-4 leukemia
[14] = system: BT-549 breast
[15] = system: HL-60(TB) leukemia
[16] = system: NCI-H226 lung
[17] = system: SNB-19 CNS
[18] = system: K-562 leukemia
[19] = system: MDA-MB-468 breast
[20] = system: NCI-H460 lung
[21] = system: UACC-62 melanoma
[22] = system: T-47D breast
[23] = system: ACHN renal
[24] = system: TK-10 renal
[25] = system: HCT-15 colon
[26] = system: KM12 colon
[27] = system: SK-OV-3 ovarian
[28] = system: SF-539 CNS
[29] = system: PC-3 prostate
[30] = system: SR leukemia
[31] = system: OVCAR-8 ovarian
[32] = system: HT29 colon
[33] = system: MDA-MB-435
[34] = system: UACC-257 melanoma
[35] = system: OVCAR-3 ovarian
[36] = system: RPMI-8226 leukemia
[37] = system: A549 NSCLC
[38] = system: NCI-H522 lung
[39] = system: 786-0 renal
[40] = system: SN12C renal
[41] = system: SK-MEL-2 melanoma
[42] = system: HCC-2998 colon
[43] = system: MCF7 breast
[44] = system: LOX IMVI melanoma
[45] = system: SK-MEL-28 melanoma
[46] = system: EKVX NSCLC
[47] = system: NCI/ADR-RES ovarian
[48] = system: U251 CNS
[49] = system: SNB-75 CNS
[50] = system: CAKI-1 renal
[51] = system: OVCAR-5 ovarian
[52] = system: SK-MEL-5 melanoma
[53] = system: UO-31 renal
[54] = system: COLO 205 colon
[55] = system: SW-620 colon
[56] = system: M14 melanoma
[57] = system: DU-145 prostate
[58] = system: NCI-H23 lung
[59] = system: OVCAR-4 ovarian

O=C(CS(=O)(=O)c1oc(-c2ccc(Cl)cc2)nc1S(=O)(=O)c1ccccc1)N1CCCC1
GI50 [1]: 1.71 µM | TGI [1]: 3.1 µM | GI50 [2]: 13.1 µM | TGI [2]: 29.3 µM | GI50 [3]: 1.81 µM | TGI [3]: 4.07 µM | GI50 [4]: 7.21 µM | TGI [4]: 53.9 µM | GI50 [5]: 14.2 µM | TGI [5]: 27.3 µM | GI50 [6]: 13.4 µM | TGI [6]: 26.8 µM | GI50 [7]: 1.36 µM | TGI [7]: 2.79 µM | GI50 [8]: 0.4 µM | TGI [8]: 2.36 µM | GI50 [9]: 2.38 µM | TGI [9]: 4.68 µM | GI50 [10]: 1.69 µM | TGI [10]: 3.09 µM | GI50 [11]: 17.8 µM | TGI [11]: 34 µM | GI50 [12]: 14.9 µM | TGI [12]: 43.2 µM | GI50 [13]: 2.38 µM | TGI [13]: > 100 µM | GI50 [14]: 1.88 µM | TGI [14]: 3.48 µM | GI50 [15]: 1.31 µM | TGI [15]: > 100 µM | GI50 [16]: 15.1 µM | TGI [16]: 39 µM | GI50 [17]: 16 µM | TGI [17]: 30.5 µM | GI50 [18]: 0.707 µM | TGI [18]: > 100 µM | GI50 [19]: 1.08 µM | TGI [19]: 2.49 µM | GI50 [20]: 12.3 µM | TGI [20]: 26.3 µM | GI50 [21]: 3.35 µM | TGI [21]: 13.6 µM | GI50 [22]: 1.8 µM | TGI [22]: 4.47 µM | GI50 [23]: 1.52 µM | TGI [23]: 2.85 µM | GI50 [24]: 1.75 µM | TGI [24]: 3.19 µM | GI50 [25]: 1.43 µM | TGI [25]: 2.99 µM | GI50 [26]: 16.8 µM | TGI [26]: 33 µM | GI50 [27]: 18 µM | TGI [27]: 33 µM | GI50 [28]: 1.64 µM | TGI [28]: 2.99 µM | GI50 [29]: 9.59 µM | TGI [29]: 27.5 µM | GI50 [30]: 2.6 µM | TGI [30]: > 100 µM | GI50 [31]: 11.2 µM | TGI [31]: 33.2 µM | GI50 [32]: 2.07 µM | TGI [32]: 5.07 µM | GI50 [33]: 2.88 µM | TGI [33]: 13.6 µM | GI50 [34]: 1.88 µM | TGI [34]: 3.62 µM | GI50 [35]: 1.29 µM | TGI [35]: 2.71 µM | GI50 [36]: 2.99 µM | TGI [36]: > 100 µM | GI50 [37]: 14.3 µM | TGI [37]: 31.6 µM | GI50 [38]: 1.11 µM | TGI [38]: 2.53 µM | GI50 [39]: 1.51 µM | TGI [39]: 3.01 µM | GI50 [40]: 12 µM | TGI [40]: 24.9 µM | GI50 [41]: 15 µM | TGI [41]: 29 µM | GI50 [42]: 14.5 µM | TGI [42]: 28.7 µM | GI50 [43]: 1.47 µM | TGI [43]: 3.34 µM | GI50 [44]: 1.49 µM | TGI [44]: 2.86 µM | GI50 [45]: 3.58 µM | TGI [45]: 12.5 µM | GI50 [46]: 2.03 µM | TGI [46]: 4.9 µM | GI50 [47]: 15.9 µM | TGI [47]: 70.5 µM | GI50 [48]: 15.9 µM | TGI [48]: 29.8 µM | GI50 [49]: 10.1 µM | TGI [49]: 23 µM | GI50 [50]: 1.41 µM | TGI [50]: 2.75 µM | GI50 [51]: 13.7 µM | TGI [51]: 27.4 µM | GI50 [52]: 14.3 µM | TGI [52]: 27.6 µM | GI50 [53]: 1.54 µM | TGI [53]: 2.96 µM | GI50 [54]: 2.14 µM | TGI [54]: 4.68 µM | GI50 [55]: 1.06 µM | TGI [55]: 2.41 µM | GI50 [56]: 1.88 µM | TGI [56]: 4.07 µM | GI50 [57]: 1.76 µM | TGI [57]: 3.37 µM | GI50 [58]: 11.4 µM | TGI [58]: 26.8 µM

C=C1CC[C@@H]2[C@]3(C)COC(c4ccccc4)O[C@@H]3CC[C@@]2(C)[C@@H]1C/C=C1/C(=O)OCC1OC(C)=O (some centres not stated)
GI50 [1]: 10.9 µM | TGI [1]: 23 µM | GI50 [2]: 14.4 µM | TGI [2]: 27.8 µM | GI50 [3]: 2.25 µM | TGI [3]: 5.78 µM | GI50 [4]: 20.5 µM | TGI [4]: 67.4 µM | GI50 [5]: 19.9 µM | TGI [5]: 35.7 µM | GI50 [6]: 13.3 µM | TGI [6]: 26.1 µM | GI50 [7]: 4.13 µM | TGI [7]: 17 µM | GI50 [8]: 2.54 µM | TGI [8]: 10.9 µM | GI50 [9]: 10.4 µM | TGI [9]: 23.4 µM | GI50 [10]: 17.1 µM | TGI [10]: 33.1 µM | GI50 [11]: 16 µM | TGI [11]: 31.2 µM | GI50 [12]: 15.7 µM | TGI [12]: 34.3 µM | GI50 [13]: 4.43 µM | TGI [13]: 28.6 µM | GI50 [14]: 2.67 µM | TGI [14]: 10 µM | GI50 [15]: 7.37 µM | TGI [15]: 39.2 µM | GI50 [16]: 4.89 µM | TGI [16]: 23.1 µM | GI50 [17]: 15.1 µM | TGI [17]: 28.4 µM | GI50 [18]: 3.72 µM | TGI [18]: > 100 µM | GI50 [19]: 5.05 µM | TGI [19]: 19 µM | GI50 [20]: 18.9 µM | TGI [20]: 51.8 µM | GI50 [21]: 7.28 µM | TGI [21]: 20.3 µM | GI50 [22]: 10.6 µM | TGI [22]: 27 µM | GI50 [23]: 8.95 µM | TGI [23]: 21 µM | GI50 [24]: 19 µM | TGI [24]: 33.4 µM | GI50 [25]: 4.3 µM | TGI [25]: 16.3 µM | GI50 [59]: 10.9 µM | TGI [59]: 25.2 µM | GI50 [26]: 10.6 µM | TGI [26]: 25.7 µM | GI50 [27]: 19.3 µM | TGI [27]: 34.4 µM | GI50 [28]: 4.12 µM | TGI [28]: 14.8 µM | GI50 [29]: 5.4 µM | TGI [29]: 20.4 µM | GI50 [31]: 3.23 µM | TGI [31]: 12.3 µM | GI50 [32]: 3.63 µM | TGI [32]: 13.7 µM | GI50 [33]: 10.4 µM | TGI [33]: 22.5 µM | GI50 [34]: 14.3 µM | TGI [34]: 28.7 µM | GI50 [35]: 2.74 µM | TGI [35]: 11.9 µM | GI50 [36]: 2.7 µM | TGI [36]: 7.85 µM | GI50 [37]: 15.4 µM | TGI [37]: 32.3 µM | GI50 [38]: 10.2 µM | TGI [38]: 22.8 µM | GI50 [39]: 12.5 µM | TGI [39]: 25.4 µM | GI50 [40]: 5.64 µM | TGI [40]: 18.9 µM | GI50 [41]: 11.1 µM | TGI [41]: 24.8 µM | GI50 [42]: 13.9 µM | TGI [42]: 26.9 µM | GI50 [43]: 3.34 µM | TGI [43]: 15.5 µM | GI50 [44]: 1.8 µM | TGI [44]: 3.61 µM | GI50 [45]: 13.9 µM | TGI [45]: 26.9 µM | GI50 [46]: 10.7 µM | TGI [46]: 22.6 µM | GI50 [47]: 3.28 µM | TGI [47]: 11.1 µM | GI50 [48]: 10.4 µM | TGI [48]: 24.5 µM | GI50 [49]: 1.77 µM | TGI [49]: 19.3 µM | GI50 [50]: 12.2 µM | TGI [50]: 24.7 µM | GI50 [51]: 13.4 µM | TGI [51]: 26.2 µM | GI50 [52]: 12.2 µM | TGI [52]: 24.8 µM | GI50 [53]: 10.4 µM | TGI [53]: 22.1 µM | GI50 [54]: 17.5 µM | TGI [54]: 36.1 µM | GI50 [55]: 3.04 µM | TGI [55]: 10.3 µM | GI50 [56]: 7.44 µM | TGI [56]: 20.9 µM | GI50 [57]: 13.6 µM | TGI [57]: 27.2 µM | GI50 [58]: 15.1 µM | TGI [58]: 29.1 µM
